According to ChEMBL document CHEMBL1201862, “PubChem BioAssay data set” (2004):
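Cultured in 96-well plates, cells were exposed to test compound for 48 hours across five concentrations. Here, GI50 denotes the concentration required for 50% inhibition of growth.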 Activity calls are given as the source filed them. No stated cut-off is given here; in the data, active = GI50 up to about 1.1 µM and inactive = higher.

Tests used:
Experiment in all cases: DTP human tumour cell line panel, 48 h
[1] = tested on: 786-0
[2] = tested on: A498
[3] = tested on: A549
[4] = tested on: ACHN
[5] = tested on: BT-549
[6] = tested on: CAKI-1
[7] = tested on: CCRF-CEM
[8] = tested on: COLO 205
[9] = tested on: DU-145
[10] = tested on: EKVX
[11] = tested on: HCC 2998
[12] = tested on: HCT-116
[13] = tested on: HCT-15
[14] = tested on: HL-60
[15] = tested on: HOP-62
[16] = tested on: HT-29
[17] = tested on: IGROV-1
[18] = tested on: K562
[19] = tested on: KM12
[20] = tested on: LOX IMVI
[21] = tested on: MCF7
[22] = tested on: MDA-MB-231
[23] = tested on: MDA-MB-435
[24] = tested on: MDA-N
[25] = tested on: MOLT-4
[26] = tested on: Malme-3M
[27] = tested on: NCI-H226
[28] = tested on: NCI-H23
[29] = tested on: NCI-H460
[30] = tested on: NCI/ADR-RES
[31] = tested on: OVCAR-3
[32] = tested on: OVCAR-4
[33] = tested on: OVCAR-5
[34] = tested on: OVCAR-8
[35] = tested on: RPMI-8226
[36] = tested on: RXF 393
[37] = tested on: SF-268
[38] = tested on: SF-295
[39] = tested on: SF-539
[40] = tested on: SK-MEL-28
[41] = tested on: SK-MEL-5
[42] = tested on: SK-OV-3
[43] = tested on: SN12C
[44] = tested on: SNB-19
[45] = tested on: SNB-75
[46] = tested on: SR
[47] = tested on: SW-620
[48] = tested on: T47D
[49] = tested on: TK-10
[50] = tested on: U-251
[51] = tested on: UACC-257
[52] = tested on: UACC-62
[53] = tested on: UO-31
[54] = tested on: Hs-578T
[55] = tested on: M14
[56] = tested on: NCI-H522
[57] = tested on: PC-3
[58] = tested on: SK-MEL-2

Measured: GI50

CN1CCN(c2cc3c(cc2F)c(=O)c(C(=O)O)cn3C2CC2)CC1CC#N (stereo not drawn)
inactive: [1] > 100 µM | [2] > 100 µM | [3] > 100 µM | [4] > 100 µM | [5] > 100 µM | [6] > 100 µM | [7] > 100 µM | [8] > 100 µM | [9] > 100 µM | [10] > 100 µM | [11] > 100 µM | [12] > 100 µM | [14] > 100 µM | [15] > 100 µM | [16] > 100 µM | [17] > 100 µM | [18] > 100 µM | [19] > 100 µM | [20] > 100 µM | [21] > 100 µM | [22] > 100 µM | [23] > 100 µM | [24] > 100 µM | [25] > 100 µM | [26] > 100 µM | [27] > 100 µM | [28] > 100 µM | [29] > 100 µM | [30] > 100 µM | [31] > 100 µM | [32] > 100 µM | [33] > 100 µM | [34] > 100 µM | [35] > 100 µM | [36] > 100 µM | [37] > 100 µM | [38] > 100 µM | [39] > 100 µM | [40] > 100 µM | [41] > 100 µM | [42] > 100 µM | [43] > 100 µM | [44] > 100 µM | [45] > 100 µM | [46] > 100 µM | [47] > 100 µM | [48] > 100 µM | [49] > 100 µM | [50] > 100 µM | [51] > 100 µM | [52] > 100 µM | [53] > 100 µM
> 100 µM: [13]

CCOc1ccc(NC(=O)/C=C/c2ccco2)cc1
inactive: [1] > 100 µM | [2] 42.7 µM | [3] > 100 µM | [4] > 100 µM | [5] 38 µM | [6] > 100 µM | [7] 34.8 µM | [8] 36.1 µM | [9] 47 µM | [10] 87.3 µM | [11] 35.2 µM | [12] 41.2 µM | [14] 11.9 µM | [16] 26.4 µM | [54] 65 µM | [17] > 100 µM | [18] 24.2 µM | [19] 30.5 µM | [20] 54.3 µM | [55] 58.2 µM | [21] 75.2 µM | [22] > 100 µM | [23] 5.98 µM | [24] 12.3 µM | [25] 40 µM | [26] > 100 µM | [27] 86.9 µM | [28] > 100 µM | [29] 43.8 µM | [56] > 100 µM | [30] 30.8 µM | [31] > 10 µM | [33] > 100 µM | [34] 85.9 µM | [57] 35.6 µM | [35] 32.3 µM | [36] 67.1 µM | [37] 78.7 µM | [38] 61.8 µM | [39] 26 µM | [40] > 100 µM | [58] > 100 µM | [41] 44.3 µM | [42] 32.4 µM | [43] 79.6 µM | [44] > 100 µM | [45] 84.3 µM | [46] 28.8 µM | [47] > 100 µM | [49] > 100 µM | [50] 33.8 µM | [51] 72.9 µM | [52] > 100 µM | [53] 87.1 µM
41.2 µM: [13]
